Test results reported in BigSolDB 2.1.

O=C(O)CCc1nc(-c2ccccc2)c(-c2ccccc2)o1
solubility (mole fraction)
Conditions	278.15 K	283.15 K	288.15 K	293.15 K	298.15 K	303.15 K	308.15 K	313.15 K	318.15 K	323.15 K
in DMAc	0.205	0.213	0.223	0.232	0.243	0.252	0.261	0.273	0.284	0.295
in DMF	0.136	0.146	0.154	0.164	0.174	0.186	0.197	0.207	0.219	0.232
in DMSO	–	–	–	0.214	0.226	0.24	0.256	0.272	0.287	0.303
in ethanol	0.00257	0.00315	0.00388	0.00476	0.00592	0.00716	0.00894	0.0112	0.014	0.0177
in ethyl acetate	0.00398	0.00472	0.00558	0.00661	0.00778	0.00925	0.011	0.0129	0.0151	0.0178
in methanol	0.0023	0.00282	0.00343	0.00426	0.00523	0.00657	0.00821	0.0103	0.013	0.0164
in methyl acetate	0.00533	0.00626	0.00735	0.00867	0.0102	0.012	0.0146	0.0167	0.0192	0.022
in n-butanol	0.00266	0.00328	0.00422	0.00533	0.00663	0.008	0.0105	0.0131	0.0164	0.0205
in n-butyl acetate	0.00293	0.00347	0.00416	0.00489	0.00593	0.00707	0.00842	0.01	0.012	0.0143
in n-pentanol	0.00266	0.00349	0.00458	0.00561	0.00701	0.00864	0.0108	0.0134	0.0168	0.021
in n-pentyl acetate	0.00274	0.00331	0.00387	0.0046	0.0055	0.00654	0.00782	0.00931	0.0111	0.0132
in n-propanol	0.00255	0.00326	0.00414	0.00519	0.00637	0.00794	0.01	0.0122	0.0161	0.0201
in n-propyl acetate	0.0032	0.00386	0.00463	0.00534	0.00656	0.00781	0.00935	0.0111	0.0132	0.0158
